Assay results from patent US9688653B2, “Ethoxyphenyl thienyl compounds and methods for the treatment of bacterial infections” (Duke University, priority 2013, dated 2017).
Read-outs that look alike come from different tables or passages of the source.

What was measured:
[1] = Hepatic microsome stability, mouse; assay type: in vitro ADME; conditions: 37° C.
PAMPA permeability = assay type: in vitro ADME; conditions: read-out: PAMPA Pe
[2] = tested on: E. coli strains 536 (K15 serotype), CFT073 (K2 serotype), DS17 (K5 serotype), UTI89 (K1 serotype); experiment: Visualization of isolated capsule by Alcian blue staining; assay type: cell-based, Escherichia coli; conditions: strains 536, CFT073, DS17, UTI89; DU011 200 μM
Experimental: Visualization of capsule using Alcian blue staining. Overnight cultures of clinical E. coli strains were diluted 1:100 in the presence of 1% DMSO or 100 μM DU011. Cultures were grown for ˜6 hrs (OD600=1.2) at 37° C. Samples were centrifuged at 13,200 RPM for 5 min. The medium was removed and the cells were resuspended in 500 μL of Tris-Acetate (pH 5) and shaken for 1 hr at 37° C. Samples were re-centrifuged, and the supernatant was concentrated ˜100 fold in Amicon 3K microconcentrators.
A major consideration was whether the inhibitors of K1 encapsulation were also able to inhibit the production of other important E. coli Group 2 capsule types. […] Capsular material was isolated from strains 536 (K15 serotype), CFT073 (K2 serotype) and DS17 (K5 serotype), and UTI89 (K1 serotype) in the presence and absence of capsule inhibitors. Capsule was isolated from the same amount of bacteria after growth in vehicle or with inhibitor DU011 (200 μM). Isolated material was separated on a polyacrylamide gel and stained with the cationic dye alcian blue.

panel of 68 receptors = conditions: for Inhibition across off-target panel: duplicate, upper bound over all targets
[3] = Plasma protein binding, mouse; assay type: in vitro ADME
UPEC [4] = experiment: Bacterial growth and viability without phage; assay type: cell-based, Escherichia coli
Experimental: Assay Set-up: This secondary assay was conducted in the 96 well plate format. […] Compounds were added to plates in a concentration dependent manner in the range of 100-0.39 μM, followed by addition of 100 μL of bacterial culture. Each concentration was tested in quadruplicate. 1% DMSO (final well concentration) was included. The plates were tape sealed and shaken vigorously for 1.5 hr. An initial OD600 reading at the time of infection was measured to identify compounds that cause growth retardation or bacterial killing in the absence of phage. Next, K1F phage (5 μL) was added to all of the test wells. The plates were resealed and shaken vigorously at 37° C., and measurements of OD600 for phage-mediated lysis were taken after 3 hr.
Assay Description: T7 phage-mediated lysis assay: This assay determined if the mechanism of action of the compound is inhibition of phage infectivity or replication. The T7 phage has a nearly identical genome to K1F, without encoding an endosialidase. Its cycle of replication is similar to that of K1F as well. However, T7 entry into E. coli is inhibited by K capsules. This secondary assay was conducted in the 96 well plate format. […] An initial OD600 reading was measured to identify compounds that cause growth retardation or bacterial killing in the absence of phage. […]

[5] = tested on: Methicillin Resistant Staphylococcus aureus (MRSA) Strain USA300; experiment: Growth inhibition of MRSA in buffered TSB medium; assay type: cell-based
Experimental: FIG. 17. Inhibition of Methicillin Resistant Staphylococcus aureus (MRSA) Strain USA300 by ML317 (DU011). USA300 was grown shaking in TSB medium buffered at different pH as indicated in the figure with the addition of different concentrations of the chemical probe ML317. Growth was measured by absorbance readings as indicated.

UPEC [6] = experiment: Emergence of spontaneous resistance on exposure to probe; assay type: cell-based, Escherichia coli; conditions: range of concentrations
Description: The probe described herein is entirely novel with the only precedent being the structurally dissimilar molecule 2-(4-phenylphenyl)benzo[g]quinoline-4-carboxylic acid that we previously described in proof-of-concept studies (33). The probe described herein is uniquely poised for development as an infection-specific prevention and treatment therapeutic that enhances natural immune clearance of an infection, namely UTI. […] However, the probe has no effect on in vitro growth and viability of UPEC in the absence of immune factors. […] Furthermore, this probe would be expected to act upon traditional antibiotic resistant strains of E. coli.

[7] = Aqueous stability over 48 hours; assay type: physicochemical; conditions: aqueous PBS and 50:50 aqueous PBS:acetonitrile, room temperature
Experimental: Aqueous stability for the probe was assessed using two solvent systems (100% aqueous PBS, and 50:50 aqueous PBS: acetonitrile). The probe stability was measured in aqueous PBS (no antioxidants or other protectants, DMSO concentration below 0.1%, room temperature) and the results are reported as circles in the graph in FIG. 4. The probe stability was also measured in 50:50 aqueous PBS and acetonitrile and the results are reported as squares in the graph in FIG. 4. Stability data in each case is depicted as the loss of compound with time over 48 hours with a minimum of six time points and providing the percent compound remaining after 48 hours.

CCOc1ccc(-c2cc(NC(=O)c3c(F)cccc3F)c(C(=O)O)s2)cc1 [ML317, 3-(2,6-difluorobenzamido)-5-(4-ethoxyphenyl)thiophene-2-carboxylic acid]
Hepatic Microsome Stability, % remaining at 1 hr [1]: 74.3 % remaining | Papp (PAMPA permeability; Donor pH 5.0, Acceptor pH 7.4, RT): 14 ×10⁻⁶ cm/s | Papp (PAMPA permeability; Donor pH 6.2, Acceptor pH 7.4, RT): 209 ×10⁻⁶ cm/s | Papp (PAMPA permeability; pH 7.4, Donor pH 7.4, Acceptor pH 7.4, RT): 52 ×10⁻⁶ cm/s | Capsular material, Alcian blue stained gel [2]: capsule was reduced in each strain | Inhibition across off-target panel (panel of 68 receptors; 10 μM): < 50% | Inhibition across off-target panel (panel of 68 receptors; 10 μM, listed as DU011, 10 µM): < 32% | Plasma Protein Binding (% Bound) ([3]; 1 μM): 98.97 % Bound | Plasma Protein Binding (% Bound) ([3]; 10 μM): 99.31 % Bound | Effect on in vitro growth and viability of UPEC (UPEC [4]; absence of immune factors): no effect | Effect on bacterial cell viability (UPEC [4]; highest tested concentration (100 μM)): no effect | Mode of action on MRSA (culture of bacteria from the experiments) [5]: bactericidal | Concentration sufficient to produce inhibition of MRSA ([5]; pH 5 and 5.5, TSB medium): 25 to 50 µM | Growth of MRSA ([5]; pH 7, 100 and 200 μM): inhibited growth | Emergence of spontaneous resistance in the laboratory (UPEC [6]): has not resulted in the emergence of spontaneous resistance | Aqueous stability [7]: stable

CCOc1ccc(-c2cc(NC(=O)c3c(F)cccc3F)c(C(=O)O)s2)cc1 [KUC107784N-02]
% Inh. (panel of 68 receptors; 10 µM): 6% | % Inh. (panel of 68 receptors; Calcium Channel L-Type, Benzothiazepine, rat, 10 μM): 2% | % Inh. (panel of 68 receptors; Calcium Channel L-Type, Dihydropyridine, rat, 10 μM): 32% | % Inh. (panel of 68 receptors; Dopamine D2S, hum, 10 μM): 4% | % Inh. (panel of 68 receptors; Dopamine D42, hum, 10 μM): 7% | % Inh. (panel of 68 receptors; GABAA, Flunitrazepam, Central, rat, 10 μM): 16% | % Inh. (panel of 68 receptors; GABAA, Muscimol, Central, rat, 10 μM): 9% | % Inh. (panel of 68 receptors; Glutamate, Kainate, rat, 10 μM): 11% | % Inh. (panel of 68 receptors; Glutamate, NMDA, Agonism, rat, 10 μM): 9% | % Inh. (panel of 68 receptors; Glutamate, NMDA, Glycine, rat, 10 μM): −1% | % Inh. (panel of 68 receptors; Glutamate, NMDA, Phencyclidine, rat, 10 μM): 6% | % Inh. (panel of 68 receptors; Imidazoline I2, Central, rat, 10 μM): −1% | % Inh. (panel of 68 receptors; Nicotinic Acetylcholine, hum, 10 μM): 13% | % Inh. (panel of 68 receptors; Phorbol Ester, mouse, 10 μM): −1% | % Inh. (panel of 68 receptors; Potassium Channel [KATP], ham, 10 μM): 9% | % Inh. (panel of 68 receptors; Purinergic P2X, rabbit, 10 μM): −2% | % Inh. (panel of 68 receptors; Purinergic P2Y, rat, 10 μM): 8% | % Inh. (panel of 68 receptors; Rolipram, rat, 10 μM): 9% | % Inh. (panel of 68 receptors; Thyroid Hormone, rat, 10 μM): −3% | % Inh. (panel of 68 receptors; Transporter, GABA, rat, 10 μM): 10%
